Source: patent US20230250096A1, “SUBSTITUTED PHENYL-1H-PYRROLO[2,3-c] PYRIDINE DERIVATIVES” (Janssen Pharmaceutica NV, priority 2021, published 2023)

Molecular target: T1, menin/MLL (terbium chelate-labeled menin, FITC-MBM1 peptide) (Homo sapiens, UniProt O00255, T541A)
T1 construct: Menin (a.a 1-610-6xhis tag, 2.3 mg/mL in 20 mM Hepes)
T1 sequence (O00255 with tags, fused parts or gaps T541A): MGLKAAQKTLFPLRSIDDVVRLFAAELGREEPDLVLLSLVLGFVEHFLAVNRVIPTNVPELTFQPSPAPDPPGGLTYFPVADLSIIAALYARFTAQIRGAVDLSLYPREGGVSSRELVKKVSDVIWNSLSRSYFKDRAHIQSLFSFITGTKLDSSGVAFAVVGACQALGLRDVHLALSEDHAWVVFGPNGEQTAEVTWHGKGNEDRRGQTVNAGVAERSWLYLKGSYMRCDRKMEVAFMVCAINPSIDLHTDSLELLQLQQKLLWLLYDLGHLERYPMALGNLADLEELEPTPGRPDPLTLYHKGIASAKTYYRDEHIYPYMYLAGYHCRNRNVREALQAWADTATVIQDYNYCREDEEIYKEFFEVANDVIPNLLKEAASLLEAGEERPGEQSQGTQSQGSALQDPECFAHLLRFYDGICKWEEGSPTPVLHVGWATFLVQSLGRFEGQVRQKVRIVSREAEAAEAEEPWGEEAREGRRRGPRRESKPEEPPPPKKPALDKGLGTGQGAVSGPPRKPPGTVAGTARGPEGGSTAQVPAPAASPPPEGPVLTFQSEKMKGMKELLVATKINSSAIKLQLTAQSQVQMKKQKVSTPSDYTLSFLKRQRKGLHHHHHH
Assay: Menin/MLL homogenous time-resolved fluorescence (HTRF) assay
Format: binding
Settings: 30 min incubation
How it was run: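 Competition binding read by time-resolved FRET (FITC 520 nm over terbium 490 nm) after compound meets labeled menin 1-610-His […] for 30 min, then FITC-MBM1 (75 nM) for 15 min, ambient temperature, 0.5% DMSO. Eleven-point four-fold dilutions, usually starting at 10 μM, fitted to four-parameter curves for IC50.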

Compound	IC50 [nM]
CC(=O)N1CCN(CCCC(C(C)C)N2CC[C@@H](Cc3cn(-c4ccc(F)cc4C(=O)N(C)C(C)C)c4cncc(C)c34)C2)CC1 (mixture of isomers) [Compound 8]	0.365
CC(=O)N1CCN(CCCC(C(C)C)N2CC[C@H](Cc3cn(-c4ccc(F)cc4C(=O)N(C)C(C)C)c4cncc(C)c34)C2)CC1 (mixture of isomers) [Compound 9]	0.138
CC(=O)N1C[C@@H]2CN([C@H]3C[C@@H](C(C(C)C)N4CC[C@H](Cc5cn(-c6ccc(F)cc6C(=O)N(C)C(C)C)c6cncc(C)c56)C4)C3)C[C@H]2C1 (mixture of isomers) [Compound 21]	0.052
CCC([C@H]1C[C@@H](N2CCN(C(C)=O)CC2)C1)N1CC[C@@H](Cc2cn(-c3ccc(F)cc3C(=O)N(C)C(C)C)c3cncc(C)c23)C1 (mixture of isomers) [Compound 24]	0.057
Cc1cncc2c1c(C[C@@H]1CCN(CC3CCOCC3)C1)cn2-c1ccc(F)cc1S(=N)(=O)C(C)C (mixture of isomers) [Compound 78]	0.299
Cc1cncc2c1c(C[C@@H]1CCN(CC3CCNC(=O)CC3)C1)cn2-c1ccc(F)cc1C(=O)N(C)C(C)C (mixture of isomers) [Compound 169]	0.061
Cc1cncc2c1c(C[C@@H]1CCN(CC3CCNC(=O)C3)C1)cn2-c1ccc(F)cc1C(=O)N(C)C(C)C (mixture of isomers) [Compound 212]	0.115
COCCN(C)CCCC(C(C)C)N1CC[C@H](Cc2cn(-c3ccc(F)cc3C(=O)N(C)C(C)C)c3cncc(C)c23)C1 (single isomer, unassigned) [Compound 2]	0.049
COCCN(C)CCC[C@H](C(C)C)N1CC[C@H](Cc2cn(-c3ccc(F)cc3C(=O)N(C)C(C)C)c3cncc(Cl)c23)C1 (single isomer, unassigned) [Compound 4a]	0.301
COCCN(C)CCC[C@@H](C(C)C)N1CC[C@H](Cc2cn(-c3ccc(F)cc3C(=O)N(C)C(C)C)c3cncc(Cl)c23)C1 (single isomer, unassigned) [Compound 4b]	0.094
CC(=O)N1CCN(CCCC(C(C)C)N2CCC(Cc3cn(-c4ccc(F)cc4C(=O)N(C)C(C)C)c4cncc(C)c34)C2)CC1 (single isomer, unassigned) [Compound 9a]	0.016
CC(=O)N1C[C@@H]2CN(CCC[C@H](C(C)C)N3CC[C@H](Cc4cn(-c5ccc(F)cc5C(=O)N(C)C(C)C)c5cncc(Cl)c45)C3)C[C@H]2C1 (single isomer, unassigned) [Compound 19a]	0.032
CN=S(=O)(c1cc(F)ccc1-n1cc(CC2CCN(CC3CCOCC3)C2)c2c(C)cncc21)C(C)C (single isomer, unassigned) [Compound 77b]	0.07
CN=S(=O)(c1cc(F)ccc1-n1cc(CC2CCN(CC3CCOCC3)C2)c2c(C)cncc21)C(C)C (single isomer, unassigned) [Compound 77d]	0.208
CC(=O)N1CCC(N2CC[C@H](Cc3cn(-c4ccc(F)cc4C(=O)N(C)C(C)C)c4cncc(C)c34)C2)CC1 (single isomer, unassigned) [Compound 81]	0.425
Cc1cncc2c1c(CC1CCN(CC3CCN(C(=O)[C@@H](C)O)CC3)C1)cn2-c1ccc(F)cc1C(=O)N(C)C(C)C (single isomer, unassigned) [Compound 85]	0.113
Cc1cncc2c1c(CC1CCN(CC3CCN(C(=O)[C@H](C)O)CC3)C1)cn2-c1ccc(F)cc1C(=O)N(C)C(C)C (single isomer, unassigned) [Compound 86]	0.042
CC(=O)N1CCC(C(C)N2CCC(Cc3cn(-c4ccc(F)cc4C(=O)N(C)C(C)C)c4cncc(C)c34)C2)CC1 (single isomer, unassigned) [Compound 116a]	0.075

Compound	IC50 [nM]
Cc1cncc2c1c(CC1CCN(CC3CCN(C(=O)C(C)(C)O)CC3)C1)cn2-c1ccc(F)cc1C(=O)N(C)C(C)C (single isomer, unassigned) [Compound 125]	0.027
CN=[S@](=O)(c1cc(F)ccc1-n1cc(C[C@@H]2CCN(CC3CCN(C(C)=O)CC3)C2)c2c(C)cncc21)C(C)C (single isomer, unassigned) [Compound 128a]	0.151
COCC(=O)N1CCC(CN2CC[C@@H](Cc3cn(-c4ccc(F)cc4C(=O)N(C)C(C)C)c4cncc(C)c34)C2)CC1 (single isomer, unassigned) [Compound 136]	~0.094
CC(=O)N1CCC(N2CC[C@H](Cc3cn(-c4ccc(F)cc4C(=O)N(C)C(C)C)c4cncc(C)c34)C2)C(C)C1 (single isomer, unassigned) [Compound 137a]	0.063
CNC(=O)[C@H]1CC[C@H](CN2CC([C@H](C)c3cn(-c4ccc(F)cc4C(=O)N(C)C(C)C)c4cncc(C)c34)C2)CC1 (single isomer, unassigned) [Compound 164b]	0.025
COC[C@H](C1CCCCO1)N1CC[C@@H](Cc2cn(-c3ccc(F)cc3C(=O)N(C)C(C)C)c3cncc(C)c23)C1 (single isomer, unassigned) [Compound 165b]	0.07
Cc1cncc2c1c(C[C@@H]1CCN([C@H](C)C3CCOCC3)C1)cn2-c1ccc(F)cc1[S@](=N)(=O)C(C)C (single isomer, unassigned) [Compound 180a]	0.143
Cc1cncc2c1c(C[C@H]1CCN([C@H](C)C3CCOCC3)C1)cn2-c1ccc(F)cc1[S@](=N)(=O)C(C)C (single isomer, unassigned) [Compound 181a]	0.066
Cc1cncc2c1c(CC1CCN(CC3CCC(=O)N(C)CC3)C1)cn2-c1ccc(F)cc1C(=O)N(C)C(C)C (single isomer, unassigned) [Compound 184a]	0.041
Cc1cncc2c1c(CC1CCN(CC3CCC(=O)N(C)CC3)C1)cn2-c1ccc(F)cc1C(=O)N(C)C(C)C (single isomer, unassigned) [Compound 184b]	0.065
Cc1cncc2c1c(C[C@@H]1CCN(C[C@H]3CCOC3)C1)cn2-c1ccc(F)cc1C(=O)N(C)C(C)C (single isomer, unassigned) [Compound 190a]	0.101
Cc1cncc2c1c(C[C@@H]1CCN(C[C@@H]3CCOC3)C1)cn2-c1ccc(F)cc1C(=O)N(C)C(C)C (single isomer, unassigned) [Compound 190b]	0.063
Cc1cncc2c1c(CC1CN(C[C@H]3CCOC3)C1)cn2-c1ccc(F)cc1C(=O)N(C)C(C)C (single isomer, unassigned) [Compound 191a]	0.056
Cc1cncc2c1c(CC1CN(C[C@@H]3CCOC3)C1)cn2-c1ccc(F)cc1C(=O)N(C)C(C)C (single isomer, unassigned) [Compound 191b]	0.071
Cc1cncc2c1c(C[C@@H]1CCN([C@@H](CO)C3CCCOC3)C1)cn2-c1ccc(F)cc1C(=O)N(C)C(C)C (single isomer, unassigned) [Compound 198a]	0.034
Cc1cncc2c1c(C[C@@H]1CCN([C@H](CO)C3CCCOC3)C1)cn2-c1ccc(F)cc1C(=O)N(C)C(C)C (single isomer, unassigned) [Compound 198b]	0.085
Cc1cncc2c1c(C[C@@H]1CCN(CC3CCC(O)CC3)C1)cn2-c1ccc(F)cc1C(=O)N(C)C(C)C (single isomer, unassigned) [Compound 205a]	0.049
Cc1cncc2c1c(C[C@@H]1CCN(CC3CCC(O)CC3)C1)cn2-c1ccc(F)cc1C(=O)N(C)C(C)C (single isomer, unassigned) [Compound 205b]	0.035
